According to PubChem BioAssay AID720589 (Broad Institute, 2013):
The source made the active and inactive calls.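 The calls were made as follows: active = fitted curve drops below -35% activity at a concentration within twice the top valid tested dose; inconclusive = no clear call, values can overlap the other calls; inactive = signal rising instead of falling, among other cases.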

Assay: HepG2 hepatoma cell cytotoxicity, dose response, cytotoxicity control, CellTiter-Glo luminescence, cherry-pick, set 3 (AID 720589)
Details: HepG2 viability, ATP luminescence (CellTiter-Glo), 72 h; at 0.011 µM; stronger effect = lower value; 0% = untreated, negative = ATP loss

Row | SMILES | max activity
1 | C=CC[n+]1c(-c2ccc(C)cc2)csc1Nc1ccc(NC(C)=O)cc1 | 20.8% (inactive)
2 | Nc1ccc(Oc2cccc(Oc3ccc(N)cc3)c2)cc1 | 11.2% (inactive)
3 | N#C[C@@H]1[C@H](c2ccc(C#Cc3ccc(F)cc3)cc2)[C@@H](CO)N1C(=O)Nc1ccc(F)cc1 | -24.6% (inactive)
4 | C[C@@H]1CN([C@@H](C)CO)S(=O)(=O)c2ccc(C#Cc3ccncc3)cc2O[C@H]1CN(C)S(=O)(=O)c1ccccc1 | -29.6% (inactive)
5 | COc1ccccc1/C=C1\SC(=S)N(CCC(=O)Nc2cc(C)on2)C1=O | -26.3% (inactive)
6 | COc1ccc(/C=N/Nc2ccc(C(=O)O)cc2)cc1Br | -16% (inactive)
7 | CC(=O)Nc1cccc(-c2ccnc3c2CC(C)(C(=O)NCc2ccc(N(C)C)cc2)O3)c1 (centres undefined) | 32.9% (inactive)
8 | Cc1csc(NC(=O)CCc2c(C)nc3cc(-c4ccc(Cl)cc4)nn3c2C)n1 | 11.5% (inactive)
9 | COc1ccccc1-c1cn(CC[C@H]2CC[C@@H](NC(=O)C3CCCC3)[C@@H](CO)O2)nn1 | 18.9% (inactive)
10 | Cc1cccc(/C=N/Nc2ccc3ccccc3n2)c1 | 29% (inactive)
11 | Cc1ccc(N=C2NC(=O)/C(=C\c3cccs3)S2)cc1C | -17.8% (inactive)
12 | CC(=O)Nc1ccc(OCC(=O)N(CC(C)C)C2CCS(=O)(=O)C2)cc1 (centres undefined) | 42.5% (inactive)

Same assay, conditions: HepG2 viability, ATP luminescence (CellTiter-Glo), 72 h; at 0.035 µM; stronger effect = lower value; 0% = untreated, negative = ATP loss

Row | SMILES | max activity
13 | O=C(O)CN1C(=O)/C(=C\c2ccccc2OCc2ccc(Cl)cc2Cl)SC1=S | -18.9% (inactive)
14 | O=C1C(=O)N(Cc2cccs2)c2ccccc21 | -28.1% (inactive)
15 | Nc1ncn([C@@H]2O[C@H](CO)[C@@H](O)[C@H]2O)c(=O)n1 | 16% (inactive)
16 | CCOC(=O)Cc1ccc(NC(=O)c2ccccc2Br)cc1 | -16.1% (inactive)
17 | COc1ccc(S(=O)(=O)N2CC[C@@H]3[C@H](CO)Nc4ccc(-c5ccc(C#N)cc5)cc4[C@@H]32)cc1 | -30.4% (inactive)
18 | CN(C)C(=S)N=Nc1[nH]c2ccccc2c1O | 24.6% (inactive)

Same assay, conditions: HepG2 viability, ATP luminescence (CellTiter-Glo), 72 h; at 0.1 µM; stronger effect = lower value; 0% = untreated, negative = ATP loss

Row | SMILES | max activity
19 | Cc1cc(Br)ccc1N=C1C(=O)Nc2ccccc21 | -28.8% (inactive)
20 | CCCCN=C(NNc1ccc(Br)cc1)C(=O)OCC | -31% (inactive)
21 | COC(=O)C[C@@H]1CC[C@@H]2[C@@H](COc3ccc(NC(=O)Nc4cccc(C#N)c4)cc3C(=O)N2C)O1 | -8.7% (inactive)
22 | Cc1ccsc1C(=O)OCC(=O)c1cc(C)n(C)c1C | 9.16% (inactive)
23 | CC(=O)c1ccc(N=C2C(=O)Nc3ccccc32)cc1 | -37.4% (inactive)
24 | Cc1occc1-c1n[nH]c(=S)n1C | -6.52% (inactive)
25 | CCOc1ccc(N=C2C(=O)Nc3ccc(C)c(Br)c32)cc1 | 11.1% (inactive)
26 | COc1cccc(Sc2ccccc2/C=N/NC(N)=O)c1 | -25.8% (inactive)

Same assay, conditions: HepG2 viability, ATP luminescence (CellTiter-Glo), 72 h; at 0.3 µM; stronger effect = lower value; 0% = untreated, negative = ATP loss

Row | SMILES | max activity
27 | COC(=O)C[C@@H]1CC[C@@H]2[C@@H](COc3ccc(NC(=O)Nc4ccccc4C)cc3C(=O)N2C)O1 | -23.1% (inactive)
28 | Cc1ccccc1NC(=O)C(=Cc1ccc(C(=O)O)cc1)C(=O)Nc1ccccc1C | -13.1% (inactive)
29 | COc1ccc(S(=O)(=O)N2CCCc3nc(-c4ccc(F)cc4)ccc32)cc1 | -23.5% (inactive)
30 | C[C@H](CO)N1C[C@H](C)[C@@H](CN(C)Cc2ccc(C(F)(F)F)cc2)OCCCC[C@H](C)Oc2ccc(NS(=O)(=O)c3ccc(F)cc3)cc2C1=O | 27.5% (inactive)
31 | CCc1c(C(=O)NN2C(=O)C3CCCCC3C2=O)csc1C (centres undefined) | -31.9% (inactive)
32 | C[C@H]1CN([C@@H](C)CO)S(=O)(=O)c2ccc(C#Cc3ccncc3)cc2O[C@@H]1CN(C)S(=O)(=O)c1ccccc1 | -9.66% (inactive)
33 | COC(=O)C[C@H]1CC[C@H]2[C@@H](COc3ccc(NC(=O)Nc4cccc(Cl)c4)cc3C(=O)N2C)O1 | -27.3% (inactive)
34 | O=C(CNC(=O)Cc1ccccc1)N=Nc1c(O)n(Cc2ccc3c(c2)OCO3)c2ccccc12 | -28.9% (inactive)
35 | CCOc1ccc(NC(=O)C(=O)N/N=C\c2ccc(CNS(=O)(=O)c3ccccc3)o2)cc1 | -36.6% (inactive)
36 | CC(C)(C)c1ccc(Oc2ccc(NC(=O)c3ccccc3C(=O)O)cn2)cc1 | -40.7% (inactive)
37 | O=c1c2ccccc2oc2cc(C#CC3(O)CCCCC3)ccc12 | 13.9% (inactive)

Same assay, conditions: HepG2 viability, ATP luminescence (CellTiter-Glo), 72 h; at 0.35 µM; stronger effect = lower value; 0% = untreated, negative = ATP loss

Row | SMILES | max activity
38 | COC(=O)C[C@@H]1CC[C@H]2[C@H](COc3ccc(NC(=O)Nc4cc(C)cc(C)c4)cc3C(=O)N2C)O1 | 15% (inactive)

Same assay, conditions: HepG2 viability, ATP luminescence (CellTiter-Glo), 72 h; at 0.9 µM; stronger effect = lower value; 0% = untreated, negative = ATP loss

Row | SMILES | max activity
39 | c1cncc(-c2ccc([C@@H]3[C@H]4CNC[C@@H]3N4CC3CCOCC3)cc2)c1 | -28.8% (inactive)
40 | COC(=O)C[C@@H]1CC[C@@H]2[C@H](COc3ccc(NC(=O)c4ccc(F)cc4)cc3C(=O)N2C)O1 | -31.5% (inactive)
41 | O=C(NCc1ccccn1)c1ccc(CNS(=O)(=O)c2cccc(Cl)c2)cc1 | -24.4% (inactive)
42 | COC(=O)C[C@@H]1CC[C@@H]2[C@H](COc3ccc(NC(=O)Nc4cccc(Cl)c4)cc3C(=O)N2C)O1 | -25.8% (inactive)
43 | COc1ccc(OC)c(-c2nnc3n2N=C(c2ccc(OC)c(OC4CCCC4)c2)CS3)c1 | -30% (inactive)

Same assay, conditions: HepG2 viability, ATP luminescence (CellTiter-Glo), 72 h; at 1 µM; stronger effect = lower value; 0% = untreated, negative = ATP loss

Row | SMILES | max activity
44 | C[C@H]1CN([C@@H](C)CO)C(=O)Cc2cc(NC(=O)CCCCCC(=O)Nc3ccccc3N)ccc2O[C@H]1CN(C)Cc1ccc(C(F)(F)F)cc1 | -22.7% (inactive)

Same assay, conditions: HepG2 viability, ATP luminescence (CellTiter-Glo), 72 h; at 2.85 µM; stronger effect = lower value; 0% = untreated, negative = ATP loss

Row | SMILES | max activity
45 | COc1ccc(OC)c(-c2nnc3n2N=C(c2ccc(OC)c(OC4CCOC4)c2)CS3)c1 (centres undefined) | -28.2% (inactive)
46 | O=C(Sc1cccc2cccnc12)c1ccccc1Br | -31.3% (inactive)
47 | Cc1cc(C)cc(C(=O)NC(=S)Nc2ccc(Cc3ccncc3)cc2)c1 | -39.1% (inactive)
48 | COCC(=O)Nc1ccc2c(c1)[C@@H]1C[C@@H](CC(=O)NCc3ccc(-c4ccccc4)cc3)O[C@@H](CO)[C@@H]1O2 | -28% (inactive)
49 | O=C(C[C@@H]1CC[C@@H]2[C@H](COC[C@@H](O)CN2S(=O)(=O)c2ccc(F)cc2)O1)NCc1ccc(Cl)c(Cl)c1 | -11.2% (inactive)
50 | CN=c1scc(-c2ccccc2F)n1/N=C/c1ccc(O)c(O)c1O | -42.6% (inactive)
51 | Cc1ccc2c(c1)C(=O)N1[C@H]3c4cc(Br)ccc4OC[C@@H]3[C@H](c3ccccc3)[C@]1(C)C(=O)N2 | -19.3% (inactive)
52 | C[C@@H]1CN([C@H](C)CO)C(=O)c2cc(C#CCc3ccccc3)cnc2O[C@@H]1CN(C)Cc1cccc(F)c1 | -31.8% (inactive)
53 | C[C@@H]1CN([C@H](C)CO)S(=O)(=O)c2ccc(C#CC3CC3)cc2O[C@@H]1CN(C)Cc1ccccc1F | -22% (inactive)
54 | CC(C)Oc1ccc(Br)cc1C(=O)N/N=C/c1c[nH]c2ccccc12 | -17% (inactive)

Same assay, conditions: HepG2 viability, ATP luminescence (CellTiter-Glo), 72 h; at 8 µM; stronger effect = lower value; 0% = untreated, negative = ATP loss

Row | SMILES | max activity
55 | COc1ccccc1CNC(=O)C[C@@H]1CC[C@H]2[C@@H](COC[C@H](O)CN2C(=O)Nc2ccc(C(F)(F)F)cc2)O1 | -30.7% (inactive)
56 | C[C@H](CO)N1C[C@H](C)[C@H](CN(C)Cc2ccc(C(F)(F)F)cc2)Oc2ccc(NC(=O)CCCCCC(=O)Nc3ccccc3N)cc2CC1=O | -23.5% (inactive)
57 | CCOc1ccc(/C=C2\CCc3ccccc3C2=O)cc1 | -13.7% (inactive)
58 | O=C(Nc1cccc(Oc2ccc3c(c2)C(=O)NC3=O)c1)c1cccs1 | -36% (inactive)
59 | COc1ccc2oc(-c3ccccc3)cc(=O)c2c1 | 25.1% (inactive)

Same assay, conditions: HepG2 viability, ATP luminescence (CellTiter-Glo), 72 h; at 23.5 µM; stronger effect = lower value; 0% = untreated, negative = ATP loss

Row | SMILES | max activity
60 | O=S(=O)(c1ccc(F)cc1)N1C[C@H]2[C@@H](c3ccccc31)[C@H](CO)N2Cc1ccccc1Cl | -21.9% (inactive)

Same assay, conditions: HepG2 viability, ATP luminescence (CellTiter-Glo), 72 h; at 26 µM; stronger effect = lower value; 0% = untreated, negative = ATP loss

Row | SMILES | max activity
61 | CC(C)(C)c1ccc(Oc2ccc(NC(=O)C3CC=CCC3C(=O)O)cc2)cc1 (centres undefined) | 17.4% (inactive)
62 | CN(CCO)c1ccc(/C=N/Nc2nncc3ccccc23)cc1 | -29.7% (inactive)
63 | C[C@@H]1CN([C@@H](C)CO)C(=O)Cc2cc(NC(=O)Cn3cnnn3)ccc2O[C@@H]1CN(C)Cc1ccc(Oc2ccccc2)cc1 | 25% (inactive)
64 | Cc1ccc(/C=C/C(=O)N2CCN(S(=O)(=O)c3c(C)c(C)cc(C)c3C)CC2)o1 | -14.8% (inactive)
65 | COc1ccc(Cl)cc1S(=O)(=O)Nc1ccc2c(c1)n(C)c(=O)n2C | -15.6% (inactive)
66 | COc1ccc(/C=C(/C(=O)c2cccs2)N2C=CC=CC2=C(C#N)C#N)cc1 | -33.6% (inactive)
67 | Cc1cc(C(=O)CN2C(=O)c3ccccc3S2(=O)=O)c(C)n1C(C)C | 17.7% (inactive)
68 | O=C(C[C@H]1C[C@H]2c3cc(NS(=O)(=O)c4ccc(F)cc4)ccc3O[C@H]2[C@H](CO)O1)NCc1ccc(Oc2ccccc2)cc1 | 21.5% (inactive)
69 | CC(=O)Oc1ccc(-c2ccc(C(=O)Nc3cccc(S(=O)(=O)N4CCOCC4)c3)cc2)cc1 | -21.6% (inactive)
70 | CCCC[C@@H]1Cc2[nH][nH]c(=O)c2[C@H](c2ccc3ccccc3c2)O1 | 22% (inactive)
71 | CC(NC(=O)c1ccco1)c1nc(-c2ccc(C(C)(C)C)cc2)no1 (centres undefined) | -24.1% (inactive)
72 | O=C(CNC(c1ccccc1)c1ccccc1)Nc1ccccc1-c1ccccc1 | 10.7% (inactive)
73 | Cc1c(N=Cc2cc(Br)cc(Br)c2O)cccc1C(=O)O | -9.11% (inactive)
74 | COc1cccc(OC)c1C(=O)Nc1cc(C)nn1-c1nc2ccccc2[nH]1 | -39.9% (inactive)
